Here are results for 11 compounds from patent US7067549B2, “Pyrrolidone carboxamides” (Actelion Pharmaceuticals AG, priority 2001, dated 2006).

For the test, the target named is T1, mouse NPY-Y5 receptors (mNPY-Y5) (Mus musculus, UniProt O70342).
T1 construct: The full-length cDNA which contains the mouse NPY-Y5 (mNPY-Y5) receptor coding was amplified from mouse brain cDNA; expressed in transfected cells
T1 sequence (O70342 1-466): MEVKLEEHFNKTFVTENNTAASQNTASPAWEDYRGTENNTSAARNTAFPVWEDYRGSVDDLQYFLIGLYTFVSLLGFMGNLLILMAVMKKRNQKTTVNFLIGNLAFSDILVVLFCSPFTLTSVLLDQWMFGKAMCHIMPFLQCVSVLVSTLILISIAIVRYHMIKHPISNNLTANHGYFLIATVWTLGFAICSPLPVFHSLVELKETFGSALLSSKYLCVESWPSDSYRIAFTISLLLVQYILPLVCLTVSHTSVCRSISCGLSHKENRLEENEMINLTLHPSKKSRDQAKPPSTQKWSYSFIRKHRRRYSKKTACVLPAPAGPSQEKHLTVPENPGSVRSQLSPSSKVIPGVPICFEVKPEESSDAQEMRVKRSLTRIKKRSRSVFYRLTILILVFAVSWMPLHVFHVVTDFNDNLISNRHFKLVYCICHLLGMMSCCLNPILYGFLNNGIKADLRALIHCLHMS
Nature of the test: Radioligand competition binding (125I-PYY) on membranes of HEK293 cells expressing recombinant mouse NPY-Y5 receptor. To be noted: displacement of 100 pM 125I-labeled PYY, 1 h at 22° C., read-out: NPY5 IC50. The text has this:
The full-length cDNA which contains the mouse NPY-Y5 (mNPY-Y5) receptor coding was amplified from mouse brain cDNA using specific primers, which were custom-made on the basis of published sequences, and employing Pfu DNA polymerase (Stratagene). The amplification product was subcloned into a mammalian expression vector pcDNA3 using EcoRI and XhoI restriction sites. Positive clones were sequenced; one clone, which contained the published sequence, was selected for preparing stable cell clones.
Human embryonic kidney 293 (HEK293) cells were transfected with 10 μg of mNPY5 DNA using Lipofectamine reagent (Gibco BRL) in accordance with the manufacturer's instructions. Two days after the transfection, the geneticin selection (1 mg/ml) was initiated and several stable clones were isolated. One of the clones was used for further pharmacological characterization.
Human embryonic kidney cells (HEK293) which express recombinant mouse NPY-Y5 receptors (mNPY-Y5) were disrupted by being frozen/thawed three times in hypotonic Tris buffer (5 mM, pH 7.4, 1 mM MgCl2), after which they were homogenized and centrifuged at 72 000 G for 15 minutes. The precipitate was washed twice with Tris buffer (pH 7.4) containing 25 mM MgCl2, 250 mM sucrose, 0.1 mM phenylmethylsulfonyl fluoride and 0.1 mM 1,10-phenanthroline, then resuspended in the same buffer and stored in aliquots at −80° C. The protein was determined by the Lowry method using bovine serum albumin (BSA) as the standard.
The competition binding analysis was carried out in 250 μl of 25 mM Hepes buffer (pH 7.4, 2.5 mM CaCl2, 1 mM MgCl2, 1% bovine serum albumin and 0.01% sodium azide) which 5 μg of protein, 100 pM ^125I-labeled peptide YY (PYY) and 10 μl of a DMSO solution containing increasing quantities of DMSO solution containing unlabeled test compound. After a one-hour incubation at 22° C., the bound ligand was separated from the unbound ligand by means of filtration through a glass fiber filter. Nonspecific binding was determined in the presence of 1 μM unlabeled PYY. Specific binding is defined as the difference between total binding and nonspecific binding. An IC50 value is defined as the concentration of the antagonist which displaces 50% of the ^125I-labeled […]. This concentration is determined by linear regression analysis following logit/log transformation of the binding values.
Turning to `CC(C)c1ccccc1N1CC(C(=O)Nc2ccc(N(C)c3ccccc3)cc2)CC1=O` (racemic) [rac. N-[4-(Methylphenylamino)phenyl]-1-(2-isopropylphenyl)-5-oxopyrrolidine-3-carboxamide], the IC50 (in general, the concentration that gives 50% inhibition) amounted to 20 nM. For `CCN(c1ccc(NC(=O)C2CC(=O)N(CC(O)c3ccccc3)C2)cc1)c1nc(C)cc(C)n1` (racemic) [rac. N-{4-[(4,6-Dimethylpyrimidin-2-yl)ethylamino]phenyl}-1-(2-hydroxy-2-phenylethyl)-5-oxo-pyrrolidine-3-carboxamide] the value was 33 nM; for `CCN(c1ccc(NC(=O)C2CC(=O)N(c3ccccc3C(C)C)C2)cc1)c1nc(C)cc(C)n1` (racemic) [rac. N-{4-[(4,6-Dimethylpyrimidin-2-yl)ethylamino]phenyl}-1-(2-isopropylphenyl)-5-oxopyrrolidine-3-carboxamide], 46 nM.

`CCN(c1ccc(NC(=O)C2CC(=O)N(c3cccc(OC)c3)C2)cc1)c1nc(C)cc(C)n1` (racemic) [rac. N-{4-[(4,6-Dimethylpyrimidin-2-yl)ethylamino]phenyl}-1-(3-methoxyphenyl)-5-oxopyrrolidine-3-carboxamide]: the IC50 worked out at 44 nM.

`CCN(c1ccc(NC(=O)C2CC(=O)N(c3cc(OC)ccc3C)C2)cc1)c1nc(C)cc(C)n1` (racemic) [rac. N-{4-[(4,6-Dimethylpyrimidin-2-yl)ethylamino]phenyl}-1-(5-methoxy-2-methylphenyl)-5-oxopyrrolidine-3-carboxamide]: the IC50 is 15 nM. The result for `CCN(c1ccc(NC(=O)C2CC(=O)N(CCc3ccccn3)C2)cc1)c1nc(C)cc(C)n1` (racemic) [rac. N-{4-[(4,6-Dimethylpyrimidin-2-yl)ethylamino]phenyl}-5-oxo-1-(2-pyridin-2-ylethyl)pyrrolidine-3-carboxamide] reads 24 nM.

Turning to `Cc1ccc(C)c(N2CC(C(=O)Nc3ccc(N(C)c4nc(C)cc(C)n4)cc3)CC2=O)c1` (racemic) [rac. N-{4-[(4,6-Dimethylpyrimidin-2-yl)methylamino]phenyl}-1-(2,5-dimethylphenyl)-5-oxopyrrolidine-3-carboxamide], the IC50 was determined as 20 nM. The result for `Cc1cc(C)nc(N(C)c2ccc(NC(=O)C3CC(=O)N(c4ccccc4C(C)C)C3)cc2)n1` (racemic) [rac. N-{4-[(4,6-Dimethylpyrimidin-2-yl)methylamino]phenyl}-1-(2-isopropylphenyl)-5-oxopyrrolidine-3-carboxamide] reads 31 nM; that for `COc1ccc(C)c(N2CC(C(=O)Nc3ccc(N(C)c4nc(C)cc(C)n4)cc3)CC2=O)c1` (racemic) [rac. N-{4-[(4,6-Dimethylpyrimidin-2-yl)methylamino]phenyl}-1-(5-methoxy-2-methylphenyl)-5-oxopyrrolidine-3-carboxamide], 41 nM. For `Cc1ccc(N2CC(C(=O)Nc3ccc(N(C)c4nc(C)cc(C)n4)cc3)CC2=O)cc1` (racemic) [rac. N-{4-[(4,6-Dimethylpyrimidin-2-yl)methylamino]phenyl}-5-oxo-1-p-tolylpyrrolidine-3-carboxamide] the value was 22 nM; for `CCN(CCO)c1ccc(NC(=O)C2CC(=O)N(c3cc(C)ccc3C)C2)cc1` (racemic) [rac. N-{4-[Ethyl-(2-hydroxyethyl)amino]phenyl}-1-(2,5-dimethylphenyl)-5-oxopyrrolidine-3-carboxamide], 16 nM.
